According to the NIST ThermoML archive (doi:10.1016/j.jct.2015.08.014):

Test: xn = mol fraction of the nth substance listed
Conditions: 313.15 K, 100 kPa, Liquid, Alternating current cell with electrodes

CCCC[N+]1(C)CCCC1.N#CN=C=[N-] [1-butyl-1-methylpyrrolidinium dicyanamide] + O=C1CCCO1
Conditions	electrical conductivity [S/m]
Frequency=0.002 MHz, x1 = 1	2
Frequency=0.0025 MHz, x1 = 0.0463	1.79
Frequency=0.0025 MHz, x1 = 0.0987	2.72
Frequency=0.0025 MHz, x1 = 0.1449	3.13
Frequency=0.0025 MHz, x1 = 0.1859	3.36
Frequency=0.0025 MHz, x1 = 0.2493	3.36
Frequency=0.0025 MHz, x1 = 0.3029	3.315
Frequency=0.0025 MHz, x1 = 0.3845	3.16
Frequency=0.0025 MHz, x1 = 0.4985	2.87
Frequency=0.0025 MHz, x1 = 0.6954	2.425
Frequency=0.0025 MHz, x1 = 0.9013	2.09
Frequency=0.0025 MHz, x1 = 1	2
Frequency=0.003 MHz, x1 = 0.0463	1.79
Frequency=0.003 MHz, x1 = 0.0987	2.72
Frequency=0.003 MHz, x1 = 0.1449	3.13
Frequency=0.003 MHz, x1 = 0.1859	3.36
Frequency=0.003 MHz, x1 = 0.2493	3.36
Frequency=0.003 MHz, x1 = 0.3029	3.316
Frequency=0.003 MHz, x1 = 0.3845	3.16
Frequency=0.003 MHz, x1 = 0.4985	2.87
Frequency=0.003 MHz, x1 = 0.6954	2.425
Frequency=0.003 MHz, x1 = 0.9013	2.09
Frequency=0.003 MHz, x1 = 1	2
Frequency=0.00347222 MHz, x1 = 0.0463	1.79
Frequency=0.00347222 MHz, x1 = 0.0987	2.72
Frequency=0.00347222 MHz, x1 = 0.1449	3.13
Frequency=0.00347222 MHz, x1 = 0.1859	3.37
Frequency=0.00347222 MHz, x1 = 0.2493	3.36
Frequency=0.00347222 MHz, x1 = 0.3029	3.317
Frequency=0.00347222 MHz, x1 = 0.3845	3.16
Frequency=0.00347222 MHz, x1 = 0.4985	2.87
Frequency=0.00347222 MHz, x1 = 0.6954	2.425
Frequency=0.00347222 MHz, x1 = 0.9013	2.09
Frequency=0.00347222 MHz, x1 = 1	2
Frequency=0.004 MHz, x1 = 0.0463	1.79
Frequency=0.004 MHz, x1 = 0.0987	2.73
Frequency=0.004 MHz, x1 = 0.1449	3.13
Frequency=0.004 MHz, x1 = 0.1859	3.37
Frequency=0.004 MHz, x1 = 0.2493	3.36
Frequency=0.004 MHz, x1 = 0.3029	3.318
Frequency=0.004 MHz, x1 = 0.3845	3.16
Frequency=0.004 MHz, x1 = 0.4985	2.88
Frequency=0.004 MHz, x1 = 0.6954	2.426
Frequency=0.004 MHz, x1 = 0.9013	2.09
Frequency=0.004 MHz, x1 = 1	2
Frequency=0.00446429 MHz, x1 = 0.0463	1.79
Frequency=0.00446429 MHz, x1 = 0.0987	2.73
Frequency=0.00446429 MHz, x1 = 0.1449	3.13
Frequency=0.00446429 MHz, x1 = 0.1859	3.37
Frequency=0.00446429 MHz, x1 = 0.2493	3.36
Frequency=0.00446429 MHz, x1 = 0.3029	3.318
Frequency=0.00446429 MHz, x1 = 0.3845	3.16
Frequency=0.00446429 MHz, x1 = 0.4985	2.88
Frequency=0.00446429 MHz, x1 = 0.6954	2.426
Frequency=0.00446429 MHz, x1 = 0.9013	2.09
Frequency=0.00446429 MHz, x1 = 1	2
Frequency=0.005 MHz, x1 = 0.0463	1.79
Frequency=0.005 MHz, x1 = 0.0987	2.73
Frequency=0.005 MHz, x1 = 0.1449	3.13
Frequency=0.005 MHz, x1 = 0.1859	3.37
Frequency=0.005 MHz, x1 = 0.2493	3.36
Frequency=0.005 MHz, x1 = 0.3029	3.319
Frequency=0.005 MHz, x1 = 0.3845	3.16
Frequency=0.005 MHz, x1 = 0.4985	2.88
Frequency=0.005 MHz, x1 = 0.6954	2.426
Frequency=0.005 MHz, x1 = 0.9013	2.09
Frequency=0.005 MHz, x1 = 1	2
Frequency=0.005454 MHz, x1 = 0.0463	1.79
Frequency=0.005454 MHz, x1 = 0.0987	2.73
Frequency=0.005454 MHz, x1 = 0.1449	3.13
Frequency=0.005454 MHz, x1 = 0.1859	3.37
Frequency=0.005454 MHz, x1 = 0.2493	3.36
Frequency=0.005454 MHz, x1 = 0.3029	3.319
Frequency=0.005454 MHz, x1 = 0.3845	3.16
Frequency=0.005454 MHz, x1 = 0.4985	2.88
Frequency=0.005454 MHz, x1 = 0.6954	2.426
Frequency=0.005454 MHz, x1 = 0.9013	2.09
Frequency=0.005454 MHz, x1 = 1	2
Frequency=0.006 MHz, x1 = 0.0463	1.79
Frequency=0.006 MHz, x1 = 0.0987	2.73
Frequency=0.006 MHz, x1 = 0.1449	3.13
Frequency=0.006 MHz, x1 = 0.1859	3.37
Frequency=0.006 MHz, x1 = 0.2493	3.36
Frequency=0.006 MHz, x1 = 0.3029	3.32
Frequency=0.006 MHz, x1 = 0.3845	3.16
Frequency=0.006 MHz, x1 = 0.4985	2.88
Frequency=0.006 MHz, x1 = 0.6954	2.43
Frequency=0.006 MHz, x1 = 0.9013	2.09
Frequency=0.006 MHz, x1 = 1	2
Frequency=0.00652174 MHz, x1 = 0.0463	1.79
Frequency=0.00652174 MHz, x1 = 0.0987	2.73
Frequency=0.00652174 MHz, x1 = 0.1449	3.13
Frequency=0.00652174 MHz, x1 = 0.1859	3.37
Frequency=0.00652174 MHz, x1 = 0.2493	3.36
Frequency=0.00652174 MHz, x1 = 0.3029	3.32
Frequency=0.00652174 MHz, x1 = 0.3845	3.16
Frequency=0.00652174 MHz, x1 = 0.4985	2.88
Frequency=0.00652174 MHz, x1 = 0.6954	2.43
Frequency=0.00652174 MHz, x1 = 0.9013	2.09
Frequency=0.00652174 MHz, x1 = 1	2
Frequency=0.00694444 MHz, x1 = 0.0463	1.79
Frequency=0.00694444 MHz, x1 = 0.0987	2.73
Frequency=0.00694444 MHz, x1 = 0.1449	3.13
Frequency=0.00694444 MHz, x1 = 0.1859	3.37
Frequency=0.00694444 MHz, x1 = 0.2493	3.36
Frequency=0.00694444 MHz, x1 = 0.3029	3.32
Frequency=0.00694444 MHz, x1 = 0.3845	3.16
